Data published in patent publication US10407381B2 (THE BOARD OF TRUSTEES OF THE UNIVERSITY OF ILLINOIS, priority 2015, dated 2019).
Read-outs that look alike come from different tables or passages of the source.

Legend:
[1] = biological target: T1, human 5-HT2C-INI (Homo sapiens, UniProt P28335); assay: Calcium flux (FLIPR) assay, human 5-HT2C-INI stably expressed in HEK-293 (Flp-In-293) cells; details: for Emax, % 5-HT 5-HT2C: normalized to 5-HT
T1 sequence (P28335 33-458): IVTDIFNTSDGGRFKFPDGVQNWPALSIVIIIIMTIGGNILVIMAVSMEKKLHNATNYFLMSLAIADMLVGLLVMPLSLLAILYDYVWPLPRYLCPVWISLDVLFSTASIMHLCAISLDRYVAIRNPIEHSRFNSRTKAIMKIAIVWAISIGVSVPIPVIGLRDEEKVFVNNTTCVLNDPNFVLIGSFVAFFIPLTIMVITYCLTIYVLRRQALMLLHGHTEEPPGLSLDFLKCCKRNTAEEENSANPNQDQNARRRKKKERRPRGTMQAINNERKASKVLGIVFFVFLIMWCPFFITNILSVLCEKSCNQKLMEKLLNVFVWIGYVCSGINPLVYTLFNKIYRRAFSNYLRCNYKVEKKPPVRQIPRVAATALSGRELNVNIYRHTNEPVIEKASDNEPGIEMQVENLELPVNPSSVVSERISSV

[2] = biological target: 5-HT2B (Homo sapiens, UniProt P41595); assay: Calcium flux (FLIPR) assay, human 5-HT2B stably expressed in HEK-293 (Flp-In-293) cells; details: human 5-HT2B in HEK-293 cells; for EC50: EC50, nM 5-HT2B, NA = no activity at 10 μM; for Emax, % 5-HT 5-HT2B: normalized to 5-HT
Chain of 5-HT2B (P41595 whole entry): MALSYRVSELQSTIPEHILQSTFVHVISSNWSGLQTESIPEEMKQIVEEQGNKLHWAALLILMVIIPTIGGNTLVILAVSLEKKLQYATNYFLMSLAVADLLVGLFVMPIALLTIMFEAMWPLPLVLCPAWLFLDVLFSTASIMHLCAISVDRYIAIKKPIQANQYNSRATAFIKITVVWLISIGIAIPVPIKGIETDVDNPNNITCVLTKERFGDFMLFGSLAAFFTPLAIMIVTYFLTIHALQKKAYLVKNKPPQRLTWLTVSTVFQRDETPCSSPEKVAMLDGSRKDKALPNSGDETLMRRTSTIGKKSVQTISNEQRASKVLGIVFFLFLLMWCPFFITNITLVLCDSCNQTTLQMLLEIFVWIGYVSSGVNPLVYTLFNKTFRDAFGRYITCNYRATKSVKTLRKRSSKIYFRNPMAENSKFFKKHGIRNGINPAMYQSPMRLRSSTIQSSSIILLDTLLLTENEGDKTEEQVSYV

[3] = biological target: 5-HT2A (Homo sapiens, UniProt P28223); assay: Calcium flux (FLIPR) assay, human 5-HT2A stably expressed in HEK-293 (Flp-In-293) cells; details: human 5-HT2A in HEK-293 cells, FLIPR; for EC50: NA = no activity at 10 μM; for Emax, % 5-HT 5-HT2A: normalized to 5-HT
Chain of 5-HT2A (P28223 whole entry): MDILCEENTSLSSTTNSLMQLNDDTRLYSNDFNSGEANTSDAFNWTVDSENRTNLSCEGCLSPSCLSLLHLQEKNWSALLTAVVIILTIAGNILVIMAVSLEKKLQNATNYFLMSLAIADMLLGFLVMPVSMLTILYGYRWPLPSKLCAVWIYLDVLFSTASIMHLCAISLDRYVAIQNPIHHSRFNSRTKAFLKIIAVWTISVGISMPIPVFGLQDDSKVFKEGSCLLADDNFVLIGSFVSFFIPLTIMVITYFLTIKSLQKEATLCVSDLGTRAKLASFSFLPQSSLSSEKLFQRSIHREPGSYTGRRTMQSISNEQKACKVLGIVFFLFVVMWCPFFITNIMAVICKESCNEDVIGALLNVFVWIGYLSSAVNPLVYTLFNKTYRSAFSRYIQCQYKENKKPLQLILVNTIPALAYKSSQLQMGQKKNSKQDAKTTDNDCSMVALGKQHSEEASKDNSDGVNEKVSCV

[4] = EC50, nM 5-HT2C, human 5-HT2C-INI in HEK-293 cells, FLIPR, NA = no activity at 10 μM
[5] = human 5-HT2C-INI in HEK-293 cells, FLIPR
[6] = read-out: EC50, nM 5-HT2C, human 5-HT2C-INI in HEK-293 cells, FLIPR, NA = no activity at 10 μM

SMILES	EC50 [1, 4] [nM]	Emax, % 5-HT 5-HT2C [1, 5]	EC50 [2] [nM]	Emax, % 5-HT 5-HT2B [2]	EC50 ([3]; EC50, nM 5-HT2A) [nM]	Emax, % 5-HT 5-HT2A [3]	EC50 ([1]; EC50, nM 5-HT2C) [nM]	EC50 [1, 6] [nM]	EC50 ([3]; read-out: EC50, nM 5-HT2A) [nM]
COc1cc(F)c(Cl)cc1[C@@H]1C[C@H]1CN (single isomer, unassigned) [(+)-Example 1, (+)-(2-(5-Chloro-4-fluoro-2-methoxyphenyl)cyclopropyl)methanamine]	7.6	(97%) % 5-HT	25	(59%) % 5-HT	81	(93%) % 5-HT	–	–	–
COc1ccc(Cl)c(F)c1[C@@H]1C[C@H]1CN (single isomer, unassigned) [(+)-Example 29, (+)-(2-(3-chloro-2-fluoro-6-methoxyphenyl)cyclopropyl)methanamine]	13	(92%) % 5-HT	354	(52%) % 5-HT	212	(85%) % 5-HT	–	–	–
COc1ccc(F)c(F)c1[C@@H]1C[C@H]1CN (single isomer, unassigned) [(+)-Example 45, (+)-(2-(2,3-Difluoro-6-methoxyphenyl)cyclopropyl)methanamine]	9.5	(108%) % 5-HT	209	(64%) % 5-HT	437	(79%) % 5-HT	–	–	–
COc1cc(F)c(Cl)cc1[C@@H]1C[C@H]1CN (single isomer, unassigned) [(−)-Example 1, (−)-(2-(5-Chloro-4-fluoro-2-methoxyphenyl)cyclopropyl)methanamine]	16	(99%) % 5-HT	329	(44%) % 5-HT	235	(88%) % 5-HT	–	–	–
COc1cc(F)c(F)cc1[C@@H]1C[C@H]1CN (single isomer, unassigned) [(−)-Example 40, (−)-(2-(4,5-Difluoro-2-methoxyphenyl)cyclopropyl)methanamine]	–	(104%) % 5-HT	–	(59%) % 5-HT	511	(76%) % 5-HT	–	–	–
CCOc1cc(F)c(Cl)cc1C1CC1CN (single isomer, unassigned; (+)) [(+)-Example 2, (+)-(2-(5-Chloro-2-ethoxy-4-fluorophenyl)cyclopropyl)methanamine]	4.1	(92%) % 5-HT	286	(82%) % 5-HT	194	(66%) % 5-HT	–	–	–
C=C(F)COc1ccc(F)cc1C1CC1CN (single isomer, unassigned; (+)) [(+)-Example 9, (+)-(2-(5-Fluoro-2-((2-fluoroallyl)oxy)phenyl)cyclopropyl)methanamine]	22	(91%) % 5-HT	–	–	1670	(17%) % 5-HT	–	–	–
CCOc1cc(F)c(Cl)cc1C1CC1CN (single isomer, unassigned; (-)) [(−)-Example 2, (−)-(2-(5-Chloro-2-ethoxy-4-fluorophenyl)cyclopropyl)methanamine]	118	(92%) % 5-HT	–	–	1240	(18%) % 5-HT	–	–	–
C=CCOc1ccc(F)cc1C1CC1CN (single isomer, unassigned; (-)) [(−)-Example 8, (−)-(2-(2-(Allyloxy)-5-fluorophenyl)cyclopropyl)methanamine]	157	(87%) % 5-HT	–	–	697	(56%) % 5-HT	–	–	–
NCC1CC1c1cc(F)ccc1OCCF (single isomer, unassigned; (-)) [(−)-Example 10, (−)-(2-(5-Fluoro-2-(2-fluoroethoxy)phenyl)cyclopropyl)methanamine]	514	(77%) % 5-HT	–	–	2990	(20%) % 5-HT	–	–	–
NCC1CC1c1cc(Cl)ccc1OCCF (single isomer, unassigned; (-)) [(−)-Example 19, (−)-(2-(5-Chloro-2-(2-fluoroethoxy)phenyl)cyclopropyl)methanamine]	1130	(59%) % 5-HT	4520	(31%) % 5-HT	–	–	–	–	–
NCC1CC1c1cc(Cl)ccc1OCCCF (single isomer, unassigned; (-)) [(−)-Example 20, (−)-(2-(5-Chloro-2-(3-fluoropropoxy)phenyl)cyclopropyl)methanamine]	1260	(24%) % 5-HT	6170	(22%) % 5-HT	–	–	–	–	–
C=CCOc1ccc(Cl)cc1C1CC1CN (single isomer, unassigned; (-)) [(−)-Example 23, (−)-(2-(2-(Allyloxy)-5-chlorophenyl)cyclopropyl)methanamine]	737	(42%) % 5-HT	4300	(28%) % 5-HT	–	–	–	–	–
C#CCOc1ccc(Cl)cc1C1CC1CN (single isomer, unassigned; (-)) [(−)-Example 26, (−)-(2-(5-Chloro-2-(prop-2-yn-1-yloxy)phenyl)cyclopropyl)methanamine]	365	(71%) % 5-HT	4410	(30%) % 5-HT	–	–	–	–	–
NCC1CC1c1c(OCCF)ccc(Cl)c1F (single isomer, unassigned; (-)) [(−)-Example 31, (−)-(2-(3-Chloro-2-fluoro-6-(2-fluoroethoxy)phenyl)cyclopropyl)methanamine]	386	(80%) % 5-HT	–	(0%) % 5-HT	–	–	–	–	–
C=CCOc1cc(Cl)c(Cl)cc1C1CC1CN (single isomer, unassigned; (-)) [(−)-Example 35, (−)-(2-(2-(Allyloxy)-4,5-dichlorophenyl)cyclopropyl)methanamine]	278	(84%) % 5-HT	–	(14%) % 5-HT	–	–	–	–	–
NCC1CC1c1c(OCCF)ccc(Cl)c1Cl (single isomer, unassigned; (-)) [(−)-Example 38, (−)-(2-(2,3-Dichloro-6-(2-fluoroethoxy)phenyl)cyclopropyl)methanamine]	224	(85%) % 5-HT	10400	(62%) % 5-HT	–	–	–	–	–
CCCOc1cc(F)c(F)cc1C1CC1CN (single isomer, unassigned; (-)) [(−)-Example 43, (−)-(2-(4,5-Difluoro-2-propoxyphenyl)cyclopropyl)methanamine]	–	(89%) % 5-HT	2970	(13%) % 5-HT	–	–	119	–	–
NCC1CC1c1c(OCCF)ccc(F)c1F (single isomer, unassigned; (-)) [(−)-Example 47, (−)-(2-(2,3-Difluoro-6-(2-fluoroethoxy)phenyl)cyclopropyl)methanamine]	509	(78%) % 5-HT	–	(29%) % 5-HT	–	–	–	–	–
C=CCOc1ccc(F)c(F)c1C1CC1CN (single isomer, unassigned; (-)) [(−)-Example 49, (−)-(2-(6-(Allyloxy)-2,3-difluorophenyl)cyclopropyl)methanamine]	151	(89%) % 5-HT	4460	(26%) % 5-HT	–	–	–	–	–
COc1ccc(F)c(Cl)c1C1CC1CN (single isomer, unassigned; (-)) [(−)-Example 50, (−)-(2-(2-Chloro-3-fluoro-6-methoxyphenyl)cyclopropyl)methanamine]	–	(96%) % 5-HT	–	–	–	(72%) % 5-HT	–	3.2	119
CCOc1ccc(F)c(Cl)c1C1CC1CN (single isomer, unassigned; (-)) [(−)-Example 51, (−)-(2-(2-Chloro-6-ethoxy-3-fluorophenyl)cyclopropyl)methanamine]	38	(89%) % 5-HT	1640	(33%) % 5-HT	–	–	–	–	–
NCC1CC1c1c(OCCF)ccc(F)c1Cl (single isomer, unassigned; (-)) [(−)-Example 52, (−)-(2-(2-Chloro-3-fluoro-6-(2-fluoroethoxy)phenyl)cyclopropyl)methanamine]	–	(80%) % 5-HT	–	(29%) % 5-HT	–	–	–	135	–
C=CCOc1ccc(F)c(Cl)c1C1CC1CN (single isomer, unassigned; (-)) [(−)-Example 53, (−)-(2-(6-(Allyloxy)-2-chloro-3-fluorophenyl)cyclopropyl)methanamine]	101	(89%) % 5-HT	–	(57%) % 5-HT	–	–	–	–	–
